From patent US20230265082A1, “SUBSTITUTED 1,2,4-OXADIAZOLES AS SMALL MOLECULE INHIBITORS OF UBIQUITIN-SPECIFIC PROTEASE 28” (Dana-Farber Cancer Institute, Inc., priority 2020, published 2023)

Experiments:
USP28 [1] = molecular target: T1, USP28 (Homo sapiens, UniProt Q96RU2); test: Ubiquitin-Rhodamine110 assay; format: biochemical; conditions: USP28 at 1 nM, 30 minutes pre-incubation at room temperature, Ubiquitin-Rho110 125 nM
T1 sequence (Q96RU2 1-1077): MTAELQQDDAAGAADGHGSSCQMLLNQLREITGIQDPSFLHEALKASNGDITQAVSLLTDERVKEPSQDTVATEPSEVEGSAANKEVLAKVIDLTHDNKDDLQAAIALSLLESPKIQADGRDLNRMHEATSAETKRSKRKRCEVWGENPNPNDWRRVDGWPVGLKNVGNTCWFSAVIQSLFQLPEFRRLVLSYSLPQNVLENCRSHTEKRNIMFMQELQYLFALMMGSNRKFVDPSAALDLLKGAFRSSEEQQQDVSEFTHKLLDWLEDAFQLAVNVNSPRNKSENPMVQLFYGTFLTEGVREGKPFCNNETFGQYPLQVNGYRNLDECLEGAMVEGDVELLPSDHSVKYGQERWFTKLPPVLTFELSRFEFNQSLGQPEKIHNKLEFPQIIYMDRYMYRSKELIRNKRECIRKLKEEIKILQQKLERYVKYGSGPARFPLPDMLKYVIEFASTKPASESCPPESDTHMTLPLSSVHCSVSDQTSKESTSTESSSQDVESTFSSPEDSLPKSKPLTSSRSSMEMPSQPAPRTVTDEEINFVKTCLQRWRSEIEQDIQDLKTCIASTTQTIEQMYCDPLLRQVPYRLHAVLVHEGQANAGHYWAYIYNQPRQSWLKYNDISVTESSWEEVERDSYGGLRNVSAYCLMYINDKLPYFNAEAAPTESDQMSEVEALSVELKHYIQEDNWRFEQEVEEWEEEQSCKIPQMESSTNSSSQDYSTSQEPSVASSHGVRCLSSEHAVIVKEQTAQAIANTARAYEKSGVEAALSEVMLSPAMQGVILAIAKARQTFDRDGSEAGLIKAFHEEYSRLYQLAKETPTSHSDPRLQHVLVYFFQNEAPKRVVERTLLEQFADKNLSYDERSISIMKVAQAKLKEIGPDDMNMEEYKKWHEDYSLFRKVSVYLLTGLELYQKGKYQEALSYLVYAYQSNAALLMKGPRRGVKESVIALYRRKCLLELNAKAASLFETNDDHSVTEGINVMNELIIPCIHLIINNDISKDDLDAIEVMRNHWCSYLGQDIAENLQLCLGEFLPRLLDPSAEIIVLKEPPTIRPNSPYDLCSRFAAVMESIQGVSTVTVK
Description: USP28 (at 1 nM) was pre-incubated with different concentrations of inhibitors or DMSO as a control in 50 mM Tris pH 8, 50 mM NaCl, 0.002% Tween-20, 5 mM DTT. Compounds and protein were incubated for 30 minutes at room temperature prior to the addition of Ubiquitin-Rho110 (Boston Biochem) substrate for a final concentration of 125 nM. The initial rate of the reaction was measured by collecting fluorescence data at one-minute interval over 30-minute period using a Clariostar® fluorescence plate reader at excitation and emission wavelength of 485 nm and 535 nm, respectively. The calculated initial rate values were plotted against inhibitor concentrations to determine IC50s. All the experimental data were plotted using GraphPad Prism®.

USP28 [2] = molecular target: T1, USP28; test: Competitive activity-based protein profiling (target engagement, Ub-VME probe, Western blot); format: binding; conditions: K562 cells lysed, treated with compound for 1 h followed by Ub-VME; Western blot (FIG. 3)
Description: K562 cells were lysed and treated with indicated concentrations of compound 8 for 1 h followed by incubation with Ub-VME. Ub-VME covalently modifies USP28, resulting in higher MW band observed by Western blot.
Cells were pelleted, washed with PBS buffer, lysed on ice (20 mM Tris pH 8, 150 mM NaCl, 1% NP-40, 10% glycerol, 1 mM TCEP, phosphatase inhibitor cocktails (Sigma P5726 and Calbiochem 524624), and protease inhibitors (pepstatin, leupeptin, PMSF, and aprotinin), and clarified by centrifugation. Protein content was quantified by BCA and diluted to 2 mg/mL in lysis buffer. Compounds were added at desired concentrations and incubated at room temperature for 30 minutes. Samples were then supplemented with 2 uM HA-Ub-VS and incubated at room temperature with shaking for 15 minutes. Reactions were quenched with 4×LDS sample buffer (Thermo Fisher B0007) supplemented with 10% BME, vortexed vigorously, and heated to 95° C. for 5 minutes. Samples were resolved by SDS-PAGE and analyzed by Western blot with the indicated antibodies.

Row | IC50 (USP28 [1]) [µM] | Structure (SMILES) | labeling of USP28 by covalent Ub-VME probe (target engagement) (USP28 [2])
1 | 1 to 10 | c1ccc2cc(Cc3nc(-c4ccncc4)no3)ccc2c1 [Compound 1] | –
2 | > 100 | c1ccc(-c2nc(-c3cccnc3)no2)nc1 [Compound 2] | –
3 | 1 to 10 | Clc1ccc(Cc2nc(-c3ccc(Cl)nc3)no2)cc1 [Compound 3] | –
4 | 1 to 10 | O=c1ccc(-c2noc(Cc3ccc(Cl)cc3)n2)c[nH]1 [Compound 4] | –
5 | < 1 | Clc1ccc(-c2noc(Cc3ccc(Cl)c(Cl)c3)n2)cn1 [Compound 5] | –
6 | < 1 | Clc1ccc(-c2noc(Cc3ccccc3)n2)cn1 [Compound 6] | –
7 | 1 to 10 | O=c1ccc(-c2noc(Cc3ccccc3)n2)c[nH]1 [Compound 7] | –
8 | < 1 | O=c1ccc(-c2noc(Cc3ccc(Cl)c(Cl)c3)n2)c[nH]1 [Compound 8] | prevents labeling of USP28 by the covalent Ub-VME probe
9 | 1 to 10 | O=c1ccc(-c2nc(Cc3ccc(Cl)c(Cl)c3)no2)c[nH]1 [Compound 9] | –
10 | 1 to 10 | O=c1ccc(-c2noc(Cc3ccc(Cl)c(Cl)c3)n2)cn1Cc1ccccc1 [Compound 10] | –
11 | > 100 | O=c1ccc(-c2nc(-c3ccc(OC(F)(F)F)cc3)no2)cn1Cc1ccnc(Cl)c1 [Compound 11] | –
12 | > 100 | CN1CCN(c2cc(Cn3cc(-c4nc(-c5ccc(OC(F)(F)F)cc5)no4)ccc3=O)ccn2)CC1 [Compound 12] | –
13 | > 100 | CN(C)c1ccc(-c2noc(Cc3ccc(Cl)c(Cl)c3)n2)cn1 [Compound 13] | –
14 | > 100 | COC(=O)c1ccc(Cc2noc(Cc3ccc(Cl)c(Cl)c3)n2)cc1 [Compound 14] | –
15 | 10 to 100 | O=C(O)c1ccc(Cc2noc(Cc3ccc(Cl)c(Cl)c3)n2)cc1 [Compound 15] | –
16 | 1 to 10 | O=c1ccc(-c2noc(Cc3cc(F)cc(F)c3)n2)c[nH]1 [Compound 16] | –
17 | 10 to 100 | O=C(O)c1cccc(-c2noc(Cc3ccc(Cl)c(Cl)c3)n2)c1 [Compound 18] | –
18 | < 1 | Nc1ccc(-c2noc(Cc3ccc(Cl)c(Cl)c3)n2)cn1 [Compound 19] | –
19 | > 100 | CCC(c1ccccc1)c1nc(-c2ccc(Cl)nc2)no1 (centres unmarked) [Compound 20] | –
20 | > 100 | CCC(c1ccccc1)c1nc(-c2ccc(=O)[nH]c2)no1 (centres unmarked) [Compound 21] | –
21 | < 1 | Clc1ccc(-c2noc(Cc3ccc4ccccc4c3)n2)cn1 [Compound 22] | –
22 | 1 to 10 | Clc1ccc(-c2noc(Cc3cccc4ccccc34)n2)cn1 [Compound 23] | –
23 | < 1 | O=c1ccc(-c2noc(Cc3cccc(Cl)c3)n2)c[nH]1 [Compound 28] | –
24 | 1 to 10 | Clc1cccc(Cc2nc(-c3ccc(Cl)nc3)no2)c1 [Compound 29] | –
25 | 10 to 100 | Nc1ccc(Cc2nc(-c3ccc(Cl)nc3)no2)cc1 [Compound 30] | –
26 | 1 to 10 | O=[N+]([O-])c1cc(Cc2nc(-c3ccc(Cl)nc3)no2)ccc1Cl [Compound 31] | –
27 | 1 to 10 | O=C(Nc1ccc(-c2noc(Cc3ccc(Cl)c(Cl)c3)n2)cn1)[C@H]1CCNC1 [Compound 32] | –

Row | Structure (SMILES) | IC50 (USP28 [1]) [µM] | labeling of USP28 by covalent Ub-VME probe (target engagement) (USP28 [2])
28 | N[C@@H](Cc1ccccc1)c1nc(-c2ccc(=O)[nH]c2)no1 [Compound 17] | > 100 | –
